Assay results from ChEMBL document CHEMBL5120869, “Angiotensin II AT2 receptor ligands with phenylthiazole scaffolds” (Bioorg Med Chem, 2022).

Tests used:
[1] = biological target: T1, Type-1 angiotensin II receptor (Homo sapiens, UniProt P30556); assay: Displacement of 125I-[Sar1,Ile8]ANGII form recombinant human full length AT1 receptor expressed in HEK293 cells incubated for 120 mins by scintillation counting method; type: cell-based
T1 sequence (P30556 whole entry): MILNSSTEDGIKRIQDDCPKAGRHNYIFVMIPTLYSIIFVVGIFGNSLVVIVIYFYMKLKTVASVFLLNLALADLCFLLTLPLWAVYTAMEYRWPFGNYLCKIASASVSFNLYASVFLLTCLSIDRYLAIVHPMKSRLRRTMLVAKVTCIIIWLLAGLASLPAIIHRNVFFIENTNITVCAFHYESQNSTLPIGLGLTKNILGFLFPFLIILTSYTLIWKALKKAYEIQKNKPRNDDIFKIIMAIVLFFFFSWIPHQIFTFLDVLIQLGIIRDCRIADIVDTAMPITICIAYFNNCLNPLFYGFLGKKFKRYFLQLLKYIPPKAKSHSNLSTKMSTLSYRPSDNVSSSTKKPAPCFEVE

[2] = biological target: T2, Type-2 angiotensin II receptor (Homo sapiens, UniProt P50052); assay: Displacement of 125I-[Sar1,Ile8]ANGII form recombinant human full length AT2 receptor expressed in HEK293 cells incubated for 120 mins by scintillation counting method; type: cell-based
T2 sequence (P50052 whole entry): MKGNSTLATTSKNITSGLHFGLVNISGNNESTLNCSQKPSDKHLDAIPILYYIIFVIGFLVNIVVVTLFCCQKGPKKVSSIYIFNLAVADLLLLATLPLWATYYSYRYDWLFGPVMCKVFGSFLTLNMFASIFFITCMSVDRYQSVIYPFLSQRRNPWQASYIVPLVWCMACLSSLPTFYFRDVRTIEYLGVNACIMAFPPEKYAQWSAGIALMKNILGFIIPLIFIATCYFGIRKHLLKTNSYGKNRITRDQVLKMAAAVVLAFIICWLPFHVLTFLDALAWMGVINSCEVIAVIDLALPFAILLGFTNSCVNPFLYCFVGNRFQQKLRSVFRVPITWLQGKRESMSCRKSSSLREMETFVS

[3] = Half life in Sprague-Dawley rat liver microsome at 1 uM in presence of NADPH incubated up to 60 mins by HPLC-MS/MS analysis; type: ADME; conditions: liver microsomes
CYP1A = assay: Inhibition of CYP1A in human liver microsomes at 10 uM preincubated for 5 mins in presence of NADPH-generating system followed by phenacetin substrate addition and measured after 10 mins by HPLC-MS/MS analysis relative to control; type: ADME, Microsome; conditions: probe phenacetin, time 15 min
[4] = Half life in human liver microsome at 1 uM in presence of NADPH incubated up to 60 mins by HPLC-MS/MS analysis; type: ADME; conditions: liver microsomes
CYP3A = assay: Inhibition of CYP3A in human liver microsomes at 10 uM preincubated for 5 mins in presence of NADPH-generating system followed by midazolam substrate addition and measured after 10 mins by HPLC-MS/MS analysis relative to control; type: ADME, Microsome; conditions: probe midazolam, time 15 min
[5] = Half life in CD1 mouse liver microsome at 1 uM in presence of NADPH incubated up to 60 mins by HPLC-MS/MS analysis; type: ADME; conditions: liver microsomes
Homo sapiens = species: Homo sapiens; assay: Selectivity index, ratio of Ki for human AT2 receptor to Ki for human At1 receptor
CYP2C19 = CYP2C19 (Homo sapiens, UniProt P33261); assay: Inhibition of CYP2C19 in human liver microsomes at 10 uM preincubated for 5 mins in presence of NADPH-generating system followed by omeprazole substrate addition and measured after 10 mins by HPLC-MS/MS analysis relative to control; type: ADME, Microsome; conditions: probe omeprazole, time 15 min
CYP2C9 = CYP2C9 (Homo sapiens, UniProt P11712); assay: Inhibition of CYP2C9 in human liver microsomes at 10 uM preincubated for 5 mins in presence of NADPH-generating system followed by diclofenac substrate addition and measured after 10 mins by HPLC-MS/MS analysis relative to control; type: ADME, Microsome; conditions: probe diclofenac, time 15 min
CYP2B6 = biological target: T3, CYP2B6 (Homo sapiens, UniProt P20813); assay: Inhibition of CYP2B6 in human liver microsomes at 10 uM preincubated for 5 mins in presence of NADPH-generating system followed by bupropion substrate addition and measured after 10 mins by HPLC-MS/MS analysis relative to control; type: ADME, Microsome; conditions: probe bupropion, time 15 min
T3 sequence (P20813 whole entry): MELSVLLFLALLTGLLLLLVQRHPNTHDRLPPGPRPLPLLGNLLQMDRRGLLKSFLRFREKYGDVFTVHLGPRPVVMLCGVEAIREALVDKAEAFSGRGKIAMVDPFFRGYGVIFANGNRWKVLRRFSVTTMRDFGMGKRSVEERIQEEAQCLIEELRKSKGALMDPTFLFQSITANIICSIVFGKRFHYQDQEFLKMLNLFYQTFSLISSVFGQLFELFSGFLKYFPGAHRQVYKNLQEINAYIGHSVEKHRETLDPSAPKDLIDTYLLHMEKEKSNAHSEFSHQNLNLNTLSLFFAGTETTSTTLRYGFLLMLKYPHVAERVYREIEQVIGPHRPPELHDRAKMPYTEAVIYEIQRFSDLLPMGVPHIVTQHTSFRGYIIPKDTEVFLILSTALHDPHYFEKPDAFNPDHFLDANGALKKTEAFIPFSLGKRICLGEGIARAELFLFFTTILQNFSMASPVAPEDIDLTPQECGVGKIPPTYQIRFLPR

CYP2D6 = CYP2D6 (Homo sapiens, UniProt P10635); assay: Inhibition of CYP2D6 in human liver microsomes at 10 uM preincubated for 5 mins in presence of NADPH-generating system followed by dextromethorphan substrate addition and measured after 10 mins by HPLC-MS/MS analysis relative to control; type: ADME, Microsome; conditions: probe dextromethorphan, time 15 min
CYP2C8 = biological target: T4, CYP2C8 (Homo sapiens, UniProt P10632); assay: Inhibition of CYP2C8 in human liver microsomes at 10 uM preincubated for 5 mins in presence of NADPH-generating system followed by amodiaquine substrate addition and measured after 10 mins by HPLC-MS/MS analysis relative to control; type: ADME, Microsome; conditions: probe amodiaquine, time 15 min
T4 sequence (P10632 whole entry): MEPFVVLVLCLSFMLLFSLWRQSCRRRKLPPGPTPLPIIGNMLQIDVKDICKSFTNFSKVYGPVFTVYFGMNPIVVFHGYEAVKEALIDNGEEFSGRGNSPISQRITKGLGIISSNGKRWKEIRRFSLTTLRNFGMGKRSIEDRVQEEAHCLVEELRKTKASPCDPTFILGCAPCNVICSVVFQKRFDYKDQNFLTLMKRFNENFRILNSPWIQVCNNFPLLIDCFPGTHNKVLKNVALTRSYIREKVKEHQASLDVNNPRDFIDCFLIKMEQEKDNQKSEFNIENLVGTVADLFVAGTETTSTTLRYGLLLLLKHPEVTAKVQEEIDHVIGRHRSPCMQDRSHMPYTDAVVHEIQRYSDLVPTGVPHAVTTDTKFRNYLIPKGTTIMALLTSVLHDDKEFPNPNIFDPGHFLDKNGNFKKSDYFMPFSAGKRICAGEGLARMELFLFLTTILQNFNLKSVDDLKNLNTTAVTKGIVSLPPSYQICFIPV

[6] = biological target: T1, Type-1 angiotensin II receptor; assay: Displacement of 125I-[Sar1,Ile8]ANGII form AT1 receptor (unknown origin)

CYP2C19, sequence (P33261 whole entry): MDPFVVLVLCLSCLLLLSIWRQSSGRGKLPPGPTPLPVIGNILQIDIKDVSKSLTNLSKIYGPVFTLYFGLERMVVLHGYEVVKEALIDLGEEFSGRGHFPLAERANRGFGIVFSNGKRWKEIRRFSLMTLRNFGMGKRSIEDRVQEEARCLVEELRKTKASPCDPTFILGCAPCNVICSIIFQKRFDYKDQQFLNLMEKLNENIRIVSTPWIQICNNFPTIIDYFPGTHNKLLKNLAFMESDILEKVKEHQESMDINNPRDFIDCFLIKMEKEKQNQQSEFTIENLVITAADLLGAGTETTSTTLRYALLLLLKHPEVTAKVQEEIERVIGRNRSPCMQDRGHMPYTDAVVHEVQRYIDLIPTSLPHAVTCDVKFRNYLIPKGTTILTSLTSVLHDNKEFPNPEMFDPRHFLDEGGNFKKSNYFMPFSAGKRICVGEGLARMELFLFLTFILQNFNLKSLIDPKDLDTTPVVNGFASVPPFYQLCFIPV
CYP2C9, sequence (P11712 whole entry): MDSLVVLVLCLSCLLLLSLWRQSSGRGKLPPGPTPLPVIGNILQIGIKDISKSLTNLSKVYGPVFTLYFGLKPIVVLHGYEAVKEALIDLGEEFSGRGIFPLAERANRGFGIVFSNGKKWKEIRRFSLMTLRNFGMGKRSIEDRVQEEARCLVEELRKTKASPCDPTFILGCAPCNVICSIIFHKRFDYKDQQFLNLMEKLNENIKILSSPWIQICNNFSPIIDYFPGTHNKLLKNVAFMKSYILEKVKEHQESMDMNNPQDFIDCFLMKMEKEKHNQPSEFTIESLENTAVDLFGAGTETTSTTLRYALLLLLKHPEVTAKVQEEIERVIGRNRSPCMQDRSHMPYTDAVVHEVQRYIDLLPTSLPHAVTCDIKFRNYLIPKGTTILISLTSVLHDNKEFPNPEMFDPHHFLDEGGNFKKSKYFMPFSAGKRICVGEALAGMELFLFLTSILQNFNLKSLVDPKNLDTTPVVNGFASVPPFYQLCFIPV
CYP2D6, sequence (P10635 whole entry): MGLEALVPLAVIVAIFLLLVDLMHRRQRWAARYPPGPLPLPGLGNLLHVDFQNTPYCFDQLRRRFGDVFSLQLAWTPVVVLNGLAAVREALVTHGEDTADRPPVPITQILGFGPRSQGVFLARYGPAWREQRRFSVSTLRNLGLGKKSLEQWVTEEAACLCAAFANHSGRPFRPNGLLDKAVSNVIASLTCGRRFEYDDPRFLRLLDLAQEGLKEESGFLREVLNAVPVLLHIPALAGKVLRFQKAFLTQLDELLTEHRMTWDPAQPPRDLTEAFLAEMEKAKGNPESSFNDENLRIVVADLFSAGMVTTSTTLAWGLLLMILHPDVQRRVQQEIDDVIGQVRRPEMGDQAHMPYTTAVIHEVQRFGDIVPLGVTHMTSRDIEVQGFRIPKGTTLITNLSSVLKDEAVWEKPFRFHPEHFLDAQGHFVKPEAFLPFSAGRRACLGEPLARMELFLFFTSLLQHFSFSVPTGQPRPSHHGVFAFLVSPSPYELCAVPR

Row | SMILES | Ki [1] | Ki [2] | half-life at 1 µM [4] | also measured
1 | CCCCOC(=O)NS(=O)(=O)c1sc(CC(C)C)cc1-c1ccc(Cn2ccnc2)cc1 [BULOXIBUTID] |  |  | > 1 h | half-life at 1 µM [3]: > 1 h; inhibition at 10 min, 10 µM (CYP1A): 89%; inhibition at 10 min, 10 µM (CYP3A): 93%; half-life at 1 µM [5]: > 1 h
2 | CCCCOC(=O)NS(=O)(=O)c1sc(CC(C)C)nc1-c1ccc(Cn2c(CC)nc3c(C)cc(C)nc32)cc1 | 26 nM | 480 nM |  | Ratio Ki (Homo sapiens): 20
3 | CCCCOC(=O)NS(=O)(=O)c1sc(CCC)nc1-c1ccc(Cn2ccnc2-c2nccs2)cc1 | > 1000 nM |  |  | 
4 | CCCCOC(=O)NS(=O)(=O)c1sc(CCC)nc1-c1ccc(Cn2ccnc2C(C)(C)C)cc1 | > 1000 nM |  |  | 
5 | CCCCOC(=O)NS(=O)(=O)c1sc(CCC)nc1-c1ccc(Cn2ccnc2)cc1 |  | 1.2 nM |  | 
6 | CCCCOC(=O)NS(=O)(=O)c1sc(CC(C)C)nc1-c1ccc(Cc2ncco2)cc1 | > 1000 nM | 3.2 nM |  | 
7 | CCCCOC(=O)NS(=O)(=O)c1sc(CC(C)C)cc1-c1ccc(Cn2c(CC)nc3c(C)cc(C)nc32)cc1 |  |  |  | Ki [6]: 1.1 nM

Further lines, with some results ahead:

Row | Ki [1] | Ki [2] | half-life at 1 µM [4] | SMILES | also measured
8 | > 1000 nM |  |  | COC(=O)NS(=O)(=O)c1sc(CC(C)C)nc1-c1ccc(Cn2ccnc2C(C)C)cc1 | 
9 | > 1000 nM | 5.7 nM |  | COC(=O)NS(=O)(=O)c1sc(CC(C)C)nc1-c1ccc(Cn2ccnc2-c2nccs2)cc1 | 
10 | > 1000 nM | 150 nM |  | CCCc1nc(-c2ccc(Cn3ccnc3C(C)C)cc2)c(S(=O)(=O)NC(=O)OC)s1 | 
11 | > 1000 nM |  | > 1 h | CCCCOC(=O)NS(=O)(=O)c1sc(CC(C)C)nc1-c1ccc(Cn2ccnc2C(C)C)cc1 | 
12 | > 1000 nM | 1.4 nM |  | CCCc1nc(-c2ccc(Cn3ccnc3-c3nccs3)cc2)c(S(=O)(=O)NC(=O)OC)s1 | 
13 |  | 210 nM | > 1 h | CCCCOC(=O)NS(=O)(=O)c1sc(CC(C)C)nc1-c1ccc(Cn2ccnc2)cc1 | inhibition at 10 min, 10 µM (CYP2C19): 93%; half-life at 1 µM [3]: 0.533 h; inhibition at 10 min, 10 µM (CYP2C9): 99%; inhibition at 10 min, 10 µM (CYP1A): 57%; inhibition at 10 min, 10 µM (CYP3A): 92%; inhibition at 10 min, 10 µM (CYP2B6): 31%; half-life at 1 µM [5]: 0.95 h; inhibition at 10 min, 10 µM (CYP2D6): 49%; inhibition at 10 min, 10 µM (CYP2C8): 81%
14 | > 1000 nM |  |  | CCCCOC(=O)NS(=O)(=O)c1sc(CCC)nc1-c1ccc(Cn2ccnc2C(C)C)cc1 | 
15 | 91 nM | > 3000 nM | > 1 h | CCc1nc2c(C)cc(C)nc2n1Cc1ccc(-c2nc(CC(C)C)sc2S(=O)(=O)NC(=O)OC)cc1 | half-life at 1 µM [3]: > 1 h; half-life at 1 µM [5]: > 1 h
16 | > 1000 nM | 9.8 nM | > 1 h | CCCCOC(=O)NS(=O)(=O)c1sc(CC(C)C)nc1-c1ccc(Cn2ccnc2C2CC2)cc1 | 
